Results published in patent US4650760A, “Modified alkaline phosphatase” (Research Corporation, priority 1985, dated 1987).

Key:
[1] = target: E. coli alkaline phosphatase, trypsin-modified (tm-AP) (Escherichia coli, UniProt P00634); conditions: 2.6×10^-6 M enzyme, 0.5 M NaCl, 0.025 M Tris, pH 7.5
Protocol: (§1) Enzyme was incubated with EDTA; conditions- 2.6×10^-6 M enzyme, -0.015 M EDTA, 0.5 M NaCl, 5×10^-4 M Mg(II), 5×10^-5 M Zn(II), 5×10^-4 M spermidine, 0.025 M Tris, pH 7.5. Aliquots were withdrawn at the indicated time points and enzymatic activity in the standard phosphohydrolase assay (Appleburg, M. L. and J. E. Coleman J. Biol. Chem. 244: 308 (1969)) was determined. Data are shown as the per cent of the initial activity remaining at the times indicated. […] Enzyme was harvested and activity determined.
(§2) Following inactivation, samples of th enzymes were dialyzed against buffer solutions containing Zn(II) and Mg(II) ions (arrow in FIG. 14).

[2] = target: native bacterial alkaline phosphatase (BAP) (Escherichia coli, UniProt P00634); conditions: 2.6×10^-6 M enzyme, 0.5 M NaCl, 0.025 M Tris, pH 7.5
Chain of native bacterial alkaline phosphatase (BAP) (P00634 22-471): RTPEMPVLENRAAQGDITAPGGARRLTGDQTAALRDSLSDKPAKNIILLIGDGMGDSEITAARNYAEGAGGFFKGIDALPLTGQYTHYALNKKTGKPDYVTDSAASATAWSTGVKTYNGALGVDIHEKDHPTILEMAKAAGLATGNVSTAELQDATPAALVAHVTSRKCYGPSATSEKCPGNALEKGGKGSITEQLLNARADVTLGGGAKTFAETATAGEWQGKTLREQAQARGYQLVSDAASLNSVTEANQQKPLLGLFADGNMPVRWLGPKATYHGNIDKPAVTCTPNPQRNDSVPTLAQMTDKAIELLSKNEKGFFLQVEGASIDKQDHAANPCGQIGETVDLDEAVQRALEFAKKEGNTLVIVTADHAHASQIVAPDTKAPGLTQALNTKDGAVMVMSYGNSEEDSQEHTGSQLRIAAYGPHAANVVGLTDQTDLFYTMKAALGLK
Protocol: as §1, §2

[3] = target: alkaline phosphatase isolated from leukocytes (Homo sapiens, UniProt P05186); conditions: 0.02M EDTA; cited from earlier work
Chain of alkaline phosphatase isolated from leukocytes (P05186 18-502 limits assumed): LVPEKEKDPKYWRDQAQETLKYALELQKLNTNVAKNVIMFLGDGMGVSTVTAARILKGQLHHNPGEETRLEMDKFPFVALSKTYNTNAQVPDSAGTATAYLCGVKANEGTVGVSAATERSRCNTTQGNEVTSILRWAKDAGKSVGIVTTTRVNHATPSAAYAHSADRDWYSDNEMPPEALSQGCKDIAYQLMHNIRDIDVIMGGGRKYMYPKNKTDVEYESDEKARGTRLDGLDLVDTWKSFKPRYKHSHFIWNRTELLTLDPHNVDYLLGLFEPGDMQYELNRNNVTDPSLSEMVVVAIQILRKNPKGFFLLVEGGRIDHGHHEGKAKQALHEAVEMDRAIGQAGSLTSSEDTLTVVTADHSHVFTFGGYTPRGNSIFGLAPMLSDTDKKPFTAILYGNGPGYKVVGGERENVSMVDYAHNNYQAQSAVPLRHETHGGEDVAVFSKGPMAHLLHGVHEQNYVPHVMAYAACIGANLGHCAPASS

Chain of E. coli alkaline phosphatase, trypsin-modified (tm-AP) (P00634 33-471): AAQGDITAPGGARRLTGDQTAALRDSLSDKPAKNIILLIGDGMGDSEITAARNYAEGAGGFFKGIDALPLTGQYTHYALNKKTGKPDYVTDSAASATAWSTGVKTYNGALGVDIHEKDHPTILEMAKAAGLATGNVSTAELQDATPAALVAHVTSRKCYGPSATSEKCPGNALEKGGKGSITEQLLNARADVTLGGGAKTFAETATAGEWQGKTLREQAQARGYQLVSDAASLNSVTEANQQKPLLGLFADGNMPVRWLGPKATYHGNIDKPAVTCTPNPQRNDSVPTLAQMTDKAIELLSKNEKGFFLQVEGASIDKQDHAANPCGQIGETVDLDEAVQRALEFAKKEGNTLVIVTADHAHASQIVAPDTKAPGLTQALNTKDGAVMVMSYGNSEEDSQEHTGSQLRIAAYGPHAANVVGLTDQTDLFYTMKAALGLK

## O=C(O)CN(CCN(CC(=O)O)CC(=O)O)CC(=O)O [EDTA, ethylene diamine tetraacetic acid]
[1]
  time until activity is reduced to zero on exposure to EDTA: 1.5 h
[2]
  time required for inactivation on exposure to EDTA: 3.5 h
[3]
  inhibition after incubation with EDTA: 50%
